# Source: US11866429B2, “Heteroaryl-biphenyl amines for the treatment of PD-L1 diseases” (CHEMOCENTRYX, INC., priority 2019, dated 2024)
# Target: human PD-L1 (Homo sapiens (Human), UniProt Q9NZQ7)
# Test: Enzyme-Linked Immunosorbent Assay (ELISA), PD-1/PD-L1 binding
# Settings: plates coated with human PD-L1; Human PD-1 and biotin added; absorbance at 450 nm
# Protocol: 96 Well plates were coated with 1 μg/mL of human PD-L1 (obtained from R&D) in PBS overnight at 4° C. The wells were then blocked with 2% BSA in PBS (W/V) with 0.05% TWEEN-20 for 1 hour at 37° C. The plates were washed 3 times with PBS/0.05% TWEEN-20 and the compounds were serial diluted (1:5) in dilution medium and added to the ELISA plates. Human PD-1 and biotin 0.3 μg/mL (ACRO Biosystems) were added and incubated for 1 hour at 37° C. then washed 3 times with PBS/0.05% TWEEN-20. A second block was performed with 2% BSA in PBS (W/V)/0.05% TWEEN-20 for 10 min at 37° C. and the plates were washed 3 times with PBS/0.05% TWEEN-20. Streptavidin-HRP was added for 1 hour at 37° C. then the plates were washed 3 times with PBS/0.05% TWEEN-20. TMB substrate was added and reacted for 20 min at 37° C. A stop solution (2 N aqueous […]) was added. The absorbance was read at 450 nm using a micro-plate spectrophotometer.
# human PD-L1, sequence (Q9NZQ7 19-239): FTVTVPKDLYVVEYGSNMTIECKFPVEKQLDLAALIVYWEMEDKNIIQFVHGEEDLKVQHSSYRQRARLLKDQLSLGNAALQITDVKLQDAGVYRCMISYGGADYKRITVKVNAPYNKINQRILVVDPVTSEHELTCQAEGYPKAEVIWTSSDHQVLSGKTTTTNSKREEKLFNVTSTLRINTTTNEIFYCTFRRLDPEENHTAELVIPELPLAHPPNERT
row,SMILES,IC50 [nM]
1,COc1nc(-c2cccc(-c3cccc(Nc4nccc5nccnc45)c3Cl)c2Cl)cnc1CN[C@@H]1CCOC[C@@H]1O [Compound 1.001],< 10
2,COc1nc(-c2cccc(-c3cccc(Nc4nccc5nccnc45)c3Cl)c2Cl)cnc1CN1CC(C(=O)O)C1 [Compound 1.002],< 10
3,COc1nc(-c2cccc(-c3cccc(Nc4nccc5nccnc45)c3Cl)c2Cl)cnc1CN1CC(C)(C(=O)O)C1 [Compound 1.003],< 10
4,COc1nc(-c2cccc(-c3cccc(Nc4nccc5nccnc45)c3Cl)c2Cl)cnc1CNC[C@@H]1CCC(=O)N1 [Compound 1.004],< 10
5,COc1nc(-c2cccc(-c3cccc(Nc4nc(C)nc5cccnc45)c3C)c2Cl)cnc1CNCC1(O)CC1 [Compound 1.005],< 10
6,COc1nc(-c2cccc(-c3cccc(Nc4nc(C)nc5cccnc45)c3C)c2Cl)cnc1CNCCCO [Compound 1.006],< 10
7,COc1nc(-c2cccc(-c3cccc(Nc4nc(C)nc5cccnc45)c3C)c2Cl)ccc1CN1CC(C)(O)C1 [Compound 1.007],< 10
8,COc1nc(-c2cccc(-c3cccc(Nc4nc(C)nc5cccnc45)c3C)c2Cl)ccc1CN1CC2(CNC(=O)N2)C1 [Compound 1.008],< 10
9,COc1nc(-c2cccc(-c3cccc(Nc4nc(C)nc5cccnc45)c3Cl)c2F)ccc1CN[C@@H]1CCOC[C@@H]1O [Compound 1.009],< 10
10,COc1nc(-c2cccc(-c3cccc(Nc4nc(C)nc5cccnc45)c3C)c2C#N)ccc1CN[C@@H]1CCOC[C@@H]1O [Compound 1.010],< 10
11,COc1nc(-c2cccc(-c3cccc(Nc4nc(C)nc5cccnc45)c3Cl)c2F)ccc1CNC[C@@H]1CCC(=O)N1 [Compound 1.011],< 10
12,COc1nc(-c2cccc(-c3cccc(Nc4nc(C)nc5cccnc45)c3C)c2F)ccc1CN[C@@H]1CCOC[C@@H]1O [Compound 1.012],< 10
13,COc1nc(-c2cccc(-c3cccc(Nc4nc(C)nc5cccnc45)c3C)c2F)ccc1CNC[C@@H]1CCC(=O)N1 [Compound 1.013],< 10
14,CCOc1nc(-c2cccc(-c3cccc(Nc4nc(C)nc5cccnc45)c3C)c2Cl)ccc1CNC[C@@H]1CCC(=O)N1 [Compound 1.014],< 10
15,COc1nc(-c2cccc(-c3cccc(Nc4nc(C)nc5cccnc45)c3C)c2Cl)ccc1CNCC(C)(C)C(N)=O [Compound 1.015],< 10
16,COc1nc(-c2cccc(-c3cccc(Nc4nc(C)nc5cccnc45)c3C)c2Cl)ccc1CNC[C@H](O)CC(=O)O [Compound 1.016],< 10
17,COc1nc(-c2cccc(-c3cccc(Nc4nc(C)nc5cccnc45)c3C)c2Cl)ccc1CNC1CNC1 [Compound 1.017],< 10
18,COc1nc(-c2cccc(-c3cccc(Nc4nc(C)nc5cccnc45)c3C)c2Cl)ccc1CN[C@H]1CC[C@@H]1O [Compound 1.018],< 10
19,COc1nc(-c2cccc(-c3cccc(Nc4nc(C)nc5cccnc45)c3C)c2Cl)ccc1CNC1CCNCC1 [Compound 1.019],< 10
20,Cc1nc(Nc2cccc(-c3cccc(-c4ccc(CNC[C@@H]5CCC(=O)N5)c(C(F)(F)F)n4)c3Cl)c2C)c2ncccc2n1 [Compound 1.020],< 10
21,COc1nc(-c2cccc(-c3cccc(Nc4nc(C)nc5cccnc45)c3C)c2Cl)ccc1CN(C)CCO [Compound 1.021],< 10

row,SMILES,IC50 [nM]
1,COc1nc(-c2cccc(-c3cccc(Nc4nc(C)nc5cccnc45)c3C)c2Cl)ccc1CN1CCC[C@@H](C(=O)O)C1 [Compound 1.022],< 10
2,COc1nc(-c2cccc(-c3cccc(Nc4nc(C)nc5cccnc45)c3C)c2Cl)ccc1CN[C@H]1CCC(=O)NC1 [Compound 1.023],< 10
3,COc1nc(-c2cccc(-c3cccc(Nc4nc(C)nc5cccnc45)c3C)c2Cl)ccc1CN[C@H]1CNC(=O)C1 [Compound 1.024],< 10
4,COc1nc(-c2cccc(-c3cccc(Nc4nc(C)nc5cccnc45)c3C)c2Cl)ccc1CNCc1ncc[nH]1 [Compound 1.025],< 10
5,COc1nc(-c2cccc(-c3cccc(Nc4nc(C)nc5cccnc45)c3C)c2Cl)ccc1CNC[C@H]1CCC(=O)N1 [Compound 1.026],< 10
6,COc1nc(-c2cccc(-c3cccc(Nc4nc(C)nc5cccnc45)c3C)c2Cl)ccc1CNC[C@H](O)CO [Compound 1.027],< 10
7,COc1nc(-c2cccc(-c3cccc(Nc4nc(C)nc5cccnc45)c3C)c2Cl)ccc1CNC(C)C [Compound 1.029],< 10
8,COc1nc(-c2cccc(-c3cccc(Nc4nc(C)nc5cccnc45)c3C)c2Cl)ccc1CNC(C)(C)C(=O)O [Compound 1.030],< 10
9,COc1nc(-c2cccc(-c3cccc(Nc4nc(C)nc5cccnc45)c3C)c2Cl)ccc1CNCC(=O)O [Compound 1.031],< 10
10,COc1nc(-c2cccc(-c3cccc(Nc4nc(C)nc5cccnc45)c3C)c2Cl)ccc1CNCCn1ccnc1 [Compound 1.032],< 10
11,COc1nc(-c2cccc(-c3cccc(Nc4nc(C)nc5cccnc45)c3C)c2Cl)ccc1CN1CC[C@@](C)(C(=O)O)C1 [Compound 1.033],< 10
12,COc1nc(-c2cccc(-c3cccc(Nc4nc(C)nc5cccnc45)c3C)c2Cl)ccc1CN1CC[C@@](C)(O)C1 [Compound 1.034],< 10
13,COc1nc(-c2cccc(-c3cccc(Nc4nc(C)nc5cccnc45)c3C)c2Cl)ccc1CNC[C@@H](O)CC(=O)O [Compound 1.035],< 10
14,COc1nc(-c2cccc(-c3cccc(Nc4nc(C)nc5cccnc45)c3C)c2Cl)ccc1CN1CCCC[C@H]1C(=O)O [Compound 1.036],< 10
15,COc1nc(-c2cccc(-c3cccc(Nc4nc(C)nc5cccnc45)c3C)c2Cl)ccc1CN1CC2(CCNC2=O)C1 [Compound 1.037],< 10
16,CNCc1ccc(-c2cccc(-c3cccc(Nc4nc(C)nc5cccnc45)c3C)c2Cl)nc1OC [Compound 1.038],< 10
17,COc1nc(-c2cccc(-c3cccc(Nc4nc(C)nc5cccnc45)c3C)c2Cl)ccc1CN1CC[C@@H](O)C1 [Compound 1.040],< 10
18,COc1nc(-c2cccc(-c3cccc(Nc4nc(C)nc5cccnc45)c3C)c2Cl)ccc1CNCC(N)=O [Compound 1.041],< 10
19,COc1nc(-c2cccc(-c3cccc(Nc4nc(C)nc5cccnc45)c3C)c2Cl)ccc1CN(C)[C@@H]1CCOC[C@@H]1O [Compound 1.042],< 10
20,COc1nc(-c2cccc(-c3cccc(Nc4nc(C)nc5cccnc45)c3C)c2Cl)ccc1CN1CCC(O)CC1 [Compound 1.043],< 10
21,COc1nc(-c2cccc(-c3cccc(Nc4nc(C)nc5cccnc45)c3C)c2Cl)ccc1CN1CC[C@@H](C(=O)O)C1 [Compound 1.044],< 10

row,SMILES,IC50 [nM]
1,CCc1nc(-c2cccc(-c3cccc(Nc4nc(C)nc5cccnc45)c3C)c2Cl)ccc1CN[C@@H]1CCOC[C@@H]1O [Compound 1.045],< 10
2,CCc1nc(-c2cccc(-c3cccc(Nc4nc(C)nc5cccnc45)c3C)c2Cl)ccc1CNC[C@@H]1CCC(=O)N1 [Compound 1.046],< 10
3,COc1nc(-c2cccc(-c3cccc(Nc4nc(C)nc5cccnc45)c3C)c2Cl)ccc1CN[C@H]1CCOC[C@H]1O [Compound 1.047],< 10
4,Cc1nc(Nc2cccc(-c3cccc(-c4ccc(CNC[C@@H]5CCC(=O)N5)c(C)n4)c3Cl)c2C)c2ncccc2n1 [Compound 1.048],< 10
5,COc1nc(-c2cccc(-c3cccc(Nc4nc(C)nc5cccnc45)c3C)c2Cl)ccc1CN1CCOCC1 [Compound 1.049],< 10
6,COc1nc(-c2cccc(-c3cccc(Nc4nc(C)nc5cccnc45)c3C)c2Cl)ccc1CNC(C)(C)CCO [Compound 1.050],< 10
7,COc1nc(-c2cccc(-c3cccc(Nc4nc(C)nc5cccnc45)c3C)c2Cl)ccc1CNCC(C)(C)CO [Compound 1.051],< 10
8,COc1nc(-c2cccc(-c3cccc(Nc4nc(C)nc5cccnc45)c3C)c2Cl)ccc1CNC1CCOCC1 [Compound 1.052],< 10
9,COc1nc(-c2cccc(-c3cccc(Nc4nc(C)nc5cccnc45)c3C)c2Cl)ccc1CN1CC2(CCC(=O)N2)C1 [Compound 1.053],< 10
10,COc1nc(-c2cccc(-c3cccc(Nc4nc(C)nc5cccnc45)c3C)c2Cl)ccc1CN[C@@H]1CCC(=O)NC1 [Compound 1.054],< 10
11,COc1nc(-c2cccc(-c3cccc(Nc4nc(C)nc5cccnc45)c3C)c2Cl)ccc1CN[C@@H]1CNC(=O)C1 [Compound 1.055],< 10
12,COc1nc(-c2cccc(-c3cccc(Nc4nc(C)nc5cccnc45)c3C)c2Cl)ccc1CNC(CO)CO [Compound 1.056],< 10
13,COc1nc(-c2cccc(-c3cccc(Nc4nc(C)nc5cccnc45)c3C)c2Cl)ccc1CNCCO [Compound 1.057],< 10
14,COc1nc(-c2cccc(-c3cccc(Nc4nc(C)nc5cccnc45)c3C)c2Cl)ccc1CN1CC(O)C1 [Compound 1.058],< 10
15,COc1nc(-c2cccc(-c3cccc(Nc4nc(C)nc5cccnc45)c3C)c2Cl)ccc1CN[C@H]1CCOC1 [Compound 1.059],< 10
16,COc1nc(-c2cccc(-c3cccc(Nc4nc(C)nc5cccnc45)c3C)c2Cl)ccc1CNCC(C)(C)C(=O)O [Compound 1.060],< 10
17,COc1nc(-c2cccc(-c3cccc(Nc4nc(C)nc5cccnc45)c3C)c2Cl)ccc1CNCC(C)(C)O [Compound 1.061],< 10
18,COc1nc(-c2cccc(-c3cccc(Nc4nc(C)nc5cccnc45)c3C)c2Cl)ccc1CNC(CO)(CO)CO [Compound 1.062],< 10
19,COc1nc(-c2cccc(-c3cccc(Nc4nc(C)nc5cccnc45)c3C)c2Cl)ccc1CN1CCC(C)(O)CC1 [Compound 1.063],< 10
